Legend:
[1] = Body weight of C57BL/6 mice; assay type: in vivo
Text: (§1) Thus the compounds of the invention can be used to treat conditions that are mediated by the enhancement of leptin levels. In obesity there is high leptin level however the leptin receptors are not responding. High CNS leptin level has anti-depression effect however, if there is tolerance there is no anti depression effect.

POMC protein = POMC protein expression by western blot; assay type: in vivo, BALB/c mice
Description: (§2) 50, 2 month old female BALB/c mice, 10 mice per group, on ad libitum diet were separated (each mouse in a different cage) for 9 days (Separation Stress, a model for depression). On the 7, 8, 9, 34-40 days mice were administered with either vehicle or compounds x, 12 and 15 (1 mg/kg i.p.) or imipramine 10 mg/kg (antidepressant). POMC protein was monitored by western blot.

[2] = Forced Swim Test, compound X dose study; assay type: in vivo, BALB/c mice; details: day 11
Description: Forced swim test (FST): The animal is placed in a circular, transparent, plexiglass tank measuring 21 cm in diameter and 46 cm in height containing water 15 cm high, maintained at 23-25° C. […] Also measured is the latency period, the time elapsing, for each animal from immersion in the water tank until the first occurrence of immobility. Since climbing activity is minimal in mice, […].
(§3) 50, 2 month old BALB/c mice, 10 mice per group, on ad libitum diet were divided to 5 experimental groups with equal weight. On the 2, 3, 4, 5, 9, 11, 16, 18, 23, 25, 29, 31 days mice were administered with either vehicle or compound X 0.1, 1, 10 mg/kg i.p. or imipramine 10 mg/kg. Forced Swim Test was evaluated on day 11.

[3] = Weight and food consumption in OB/OB mice which lack the leptin gene; assay type: in vivo
Text: as §1

[4] = Weight and food consumption in Sabra mice; assay type: in vivo
Description: 140 Female Sabra Mice 12 weeks old are divided to […] 10 mice in each group with equal weight. Mice are administered I.P. with either saline or 1 mg/kg Fluoxetine (PROZAC), compound 1, 4, 5, 7, 10, 11, 12, 13, 14, 15, 19, 26 for a 4 weeks period. On day 30 and on, mice were tested by the following behavioral tests. […]

[5] = Novelty Suppressed Feeding Test (NSFT), separated BALB/c mice; assay type: in vivo; details: compounds 1 mg/kg i.p., day 9
Description: (§4) Novelty suppressed feeding test (NSFT): After the last treatment injection, all food is removed from the cage for 24 hours (water available ad libitum). At the end of this time, the animal is introduced into a 50×50×20 (height) cm wooden arena the floor of which is marked with equal rectangles of 10×10 cm. A pellet of food is placed on an elevated surface in the center of the arena. The time elapsing from the introduction of the animal into the arena until it commences eating (latency to feed) is recorded. The animal is removed from the arena immediately after it begins to eat or after not doing so for 5 min. During the test, the number of lines crossed by the animal is counted as a measure of motor activity, and calibrated for 5 min if the animal started eating before that. After the test, the animal is immediately transferred to its home cage and left to consume a previously weighed amount of food for 10 minutes. On completion of this period the food is weighed again to calculate the home cage food consumption.
as §2, with “34-40,” for “34-40”, “(antidepressant) i.p. and tested in Novel Suppressed Feeding Test on day 9.” for “(antidepressant). POMC protein was monitored by western blot.”
as §4, with “FIGS. 9A-9C show the results of the NSFT. […]” for “Novelty suppressed feeding test (NSFT):”, “hours.” for “hours (water available ad libitum).”, “into” for “into a 50×50×20 (height) cm wooden arena”, “open field test.” for “floor of which is marked with equal rectangles of 10×10 cm.”, “to find” for “elapsing from”, “food was” for “introduction of the animal into the arena until it commences eating (latency to feed) is”

[6] = Open Field Test, compound X dose study; assay type: in vivo, BALB/c mice; details: 10 mg/kg i.p.; day 25; better than the other concentrations
Description: as §3, with “x” for “X”, “mg/kg Open Field” for “mg/kg. Forced Swim”, “25. The more time they spent on the […] the less depressed.” for “11.”

P-AMPK protein = P-AMPK protein levels by western blot; assay type: in vivo, BALB/c mice
Description: as §2, with “P-AMPK” for “POMC”, “blot. […] (p<0.05a).” for “blot.”

For `CCCCCCCC/C=C\CCCCCCCC(=O)N[C@H](CO)C(C)C` [Compound 1, oleoyl-L-valinol amide], the body weight [1] was “decreased body weight”, the “POMC protein expression in the hippocampus” value (POMC protein; hippocampus, FIG. 12) was “increased significantly” and the “POMC protein expression in the hypothalamus” value (POMC protein; hypothalamus, FIG. 11) was “increased significantly”. For the same compound, the “swimming activity in forced swim test” value ([2]; 0.1 mg/kg i.p.) was “improved significantly swimming activity”, the “swimming activity in forced swim test” value ([2]; 1 mg/kg i.p., better than imipramine 10 mg/kg) was “improved significantly swimming activity” and the “swimming activity in forced swim test” value ([2]; 10 mg/kg i.p., better than imipramine 10 mg/kg) was “improved significantly swimming activity”. For the same compound, the food consumption [3] was “did not change”, the “weight (weight loss)” value [3] was “did not change” and the “weight (weight loss)” value ([3]; listed as OVA) was “not body weight”. The “weight (weight loss)” value ([3]; listed as X) was “do not produce weight loss”, the food consumption [4] was “significant decrease” and the “weight (weight loss)” value [4] was “significant decrease”. For the same compound, the “weight (weight loss)” value ([4]; listed as OVA) was “decreased body weight”, the “weight (weight loss)” value ([4]; listed as X) was “significant weight loss” and the “food intake in NSFT” value ([5]; in relation to vehicle and more than imipramine 10 mg/kg) was “significantly enhanced food intake”. The “motor activity in NSFT” value ([5]; resembled imipramine 10 mg/kg) was “enhanced motor activity”, the “motor activity in Open Field Test” value [6] was “improved motor activity like the impramine” and the “P-AMPK protein in the hippocampus” value (P-AMPK protein; hippocampus, FIG. 14A) was “significant increase”. For the same compound, the “P-AMPK protein in the hypothalamus” value (P-AMPK protein; hypothalamus, FIG. 14B) was “significant increase”.
